Experimental data as given in US20110092591A1, “PHENYL-PRENYL DERIVATIVES, OF MARINE AND SYNTHETIC ORIGIN, FOR THE TREATMENT OF COGNITIVE, NEURODEGENERATIVE OR NEURONAL DISEASES OR DISORDERS” (NOSCIRA S.A., priority 2008, published 2011).
Where two headings read alike, the source gives them in different places.

How the values were obtained:
Assay type in all cases: biochemical
[1] = target: T1, rhBACE-1 β-Secretase recombinant human (Homo sapiens, UniProt P56817); test: BACE assay (FRET, fluorogenic peptide substrate); details: for % BACE Activity: percentage of the enzyme activity (remaining)
T1 construct: purchased R&D Systems 931-AS
Source text: The aim of this assay is to determine if a compound, either synthetic or of marine origin, is a BACE-1 inhibitor, to avoid the formation of Aβ. This assay is based on FRET technology (Fluorescence Resonance Energy Transfer). FRET is used to measure cleavage of a peptide substrate, among other uses. […] When a substrate peptide cleavage occurs, the energy balance is broken and all the donor fluorescence can be observed. The increase in fluorescence is linearly related to the rate of proteolysis (Gordon, G W et al., 1998). In this assay the reaction occurs between an enzyme, purified BACE-1, and a fluorogenic peptidic substrate who present the “Swedish mutation”. The peptide cleavage by BACE-1 produces fluorescence energy and enzymatic activity can be quantified.
The reagents which are used in this assay are the following:
rhBACE-1 β-Secretase recombinant human (R&D Systems. Ref. 931-AS).
Fluorogenic Peptide Substrate IV (R&D Systems. Ref. ES004).
Beta-SECRETASE INHIBITOR H-4848. (BACHEM. Ref. H-4848.0001).
The assay is carried out in a 96 wells microplate. The final concentration of substrate is 3.5 μM per well, and the enzyme concentration is 0.5 μg/ml. The final volume of the assay is 100 μl per well and all reagents are diluted in Reaction Buffer.
The compounds are tested at a concentration of 10^−5 and 10^−6 M. The control in the assay is the commercial inhibitor β-Secretase inhibitor H-4848 from BACHEM, which is tested at 300 nM. All the samples and controls are studied by duplicate.
The plate is mixed gently and changes in the fluorescence are measured using a fluorimeter plate reader, with 320 nm excitation filter and 405 nm emission filter. The temperature should be preferably maintained between 25 and 30° C. Measurements are carried out every ten minutes during an hour. The first measure is subtracted from the last to calculate the fluorescence increase, evaluating the enzymatic activity. The 100% activity is calculated as the mean of the results of wells without sample or inhibitor.
In the cases where abnormal effects in fluorescence were detected, BACE inhibition activity was assayed using BACE-1 (beta-Secretase) FRET ASSAY KIT (Invitrogen, Ref. P2985). Fluorescence was measured with a fluorimeter plate reader, with 544 nm excitation filter and 580 nm emission filter.
Further information regarding this assay may be found in the following references, which are incorporated by reference into the present application: • Andrau, D et al; “BACE1- and BACE2-expressing human cells: characterization of beta-Amyloid precursor protein-derived catabolites, design of a novel fluorimetric assay, and identification of new in vitro inhibitors”. J Biol Chem. 2003 Jul. 11; 278(28):25859-66. • Gordon, G W et al; “Quantitative fluorescence resonance energy transfer measurements using fluorescence microscopy.” Biophys J. 1998 May; 74:2702-13.
The compounds of formula (I) of the present invention where submitted to the above indicated assay, in order to determine their BACE activity inhibition. The results are indicated in Table I, in percentage of the enzyme activity.

[2] = target: T2, Recombinant human glycogen synthase kinase 3 beta (Homo sapiens, UniProt P49841); test: GSK-3 beta inhibition assay (33P-ATP, GS-2 peptide)
[3] = target: T2, Recombinant human glycogen synthase kinase 3 beta; test: as above; details: 0.5 h, percentage of the enzyme activity (remaining), read-out: % Act. GSK-3 beta; for remaining activity at 25 µM: compound at 25 μM; for remaining activity at 50 µM: compound at 50 μM
Procedure: The GSK-3 beta activity of the compounds of formula (I) according to the present invention was determined by incubation of a mixture of recombinant human GSK-3 enzyme, a phosphate source and GSK-3 substrate in the presence and in the absence of the corresponding test compound, and by measuring the GSK-3 activity of this mixture. The compounds where tested at final concentrations of 25 and 50 μM.
Recombinant human glycogen synthase kinase 3 beta was assayed in MOPS 11 mM, pH 7.4, EDTA 0.2 mM, EGTA 1.25 mM, MgCl2 26.25 mM and sodium orthovanadate 0.25 mM in the presence of 62.5 μM of Phospho-Glycogen Synthase Peptide-2 (GS-2), 0.5 μCi gamma-^33P-ATP and unlabelled ATP at a final concentration of 12.5 μM. The final assay volume was 20 μl. After incubation for 30 minutes at 30° C., 15 μl aliquots were spotted onto P81 phosphocellulose papers. Filters were washed four times for at least 10 minutes each and counted with 1.5 ml of scintillation cocktail in a scintillation counter.
The compounds of formula (I) of the present invention where submitted to the above indicated assay, in order to determine their GSK-3 inhibition activity. The results are indicated in Table II, in percentage of the enzyme activity.

T2 sequence (P49841 whole entry): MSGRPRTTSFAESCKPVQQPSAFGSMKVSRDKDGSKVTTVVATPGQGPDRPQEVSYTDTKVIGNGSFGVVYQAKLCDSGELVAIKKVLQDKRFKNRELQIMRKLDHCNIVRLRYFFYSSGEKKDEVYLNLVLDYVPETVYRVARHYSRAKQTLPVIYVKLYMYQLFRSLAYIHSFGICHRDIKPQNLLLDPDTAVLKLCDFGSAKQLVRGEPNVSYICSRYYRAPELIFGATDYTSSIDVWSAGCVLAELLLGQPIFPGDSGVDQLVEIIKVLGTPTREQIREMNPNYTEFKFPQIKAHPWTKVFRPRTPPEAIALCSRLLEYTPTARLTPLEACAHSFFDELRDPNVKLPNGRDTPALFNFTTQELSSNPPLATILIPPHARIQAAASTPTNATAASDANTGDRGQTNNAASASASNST
T1 sequence (P56817 46-457 limits assumed): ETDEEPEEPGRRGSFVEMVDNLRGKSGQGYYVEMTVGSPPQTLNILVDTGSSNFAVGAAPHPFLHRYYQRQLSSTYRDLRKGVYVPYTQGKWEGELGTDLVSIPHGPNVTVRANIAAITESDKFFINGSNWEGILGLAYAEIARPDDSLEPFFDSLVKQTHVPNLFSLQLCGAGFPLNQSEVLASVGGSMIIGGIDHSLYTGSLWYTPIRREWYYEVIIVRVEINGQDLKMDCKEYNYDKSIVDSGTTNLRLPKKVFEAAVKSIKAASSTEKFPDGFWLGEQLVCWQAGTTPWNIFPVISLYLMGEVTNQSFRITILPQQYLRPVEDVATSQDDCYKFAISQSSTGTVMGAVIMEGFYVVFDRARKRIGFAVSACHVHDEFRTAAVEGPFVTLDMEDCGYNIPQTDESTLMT

Row | Compound | % BACE Activity ([1]; compound at 1 μM) [%] | % BACE Activity ([1]; compound at 10 μM) [%] | IC50 [2] [µM] | remaining activity at 25 µM [3] [%] | remaining activity at 50 µM [3] [%] | IC50 [1] [µM] | IC50 ([1]; given in M) [µM]
1 | CC(=O)Oc1ccc(C(=O)O)cc1C/C=C(\C)CC/C=C(\C)CC/C=C(\C)CCC=C(C)C [Compound 19] | 87 ± 14.5 | 17.5 ± 0.7 | 2.77 | 10.7 | 4.58 | 20.5 ± 2.8 | 
2 | CC(C)=CCC/C(C)=C/CC/C(C)=C/CC/C(C)=C/CC/C(C)=C/Cc1cc(O)ccc1O [Compound 4] |  |  | 9.97 | 17.8 | 17.7 |  | 
3 | COC(=O)c1ccc(O)c(C/C=C(\C)CC/C=C(\C)CC/C=C(\C)CCC=C(C)C)c1 [Compound 5] |  |  |  |  | 70.8 |  | 
4 | CC(C)=CCC/C(C)=C/CC/C(C)=C/CC/C(C)=C/Cc1cc(C(=O)OCc2ccccc2)ccc1O [Compound 24] | 100 | 100 |  | 49.7 | 22.8 |  | 
5 | CC(C)=CCC/C(C)=C/CC/C(C)=C/Cc1cc(C=O)ccc1OCc1ccccc1 [Compound 23] | 99 ± 2 | 88 ± 13 |  | 2.22 | 2.01 |  | 
6 | CC(C)=CCC/C(C)=C/Cc1cc(C(=O)O)ccc1O [Compound 14] | 100 | 84 ± 6 |  | 75.7 | 60.3 |  | 
7 | CC(C)=CCC/C(C)=C/CC/C(C)=C/CC/C(C)=C/Cc1cc(C=O)ccc1O [Compound 13] | 100 | 88 ± 8.5 | 17.4 | 52 | 4.71 |  | 
8 | CC(C)=CCC/C(C)=C/Cc1cc(C=O)ccc1O [Compound 11] | 91 ± 6 | 44 ± 12 | 8.6 | 12.1 | 1.07 |  | 
9 | COCOC(=O)c1ccc(OC(C)=O)c(C/C=C(\C)CC/C=C(\C)CC/C=C(\C)CCC=C(C)C)c1 [Compound 20, (2E,6E,10E)-4-Acetoxy-3-(3,7,11,15-tetramethyl-hexadeca-2,6,10,14-tetraenyl)-benzoic acid methoxymethyl ester] | 100 | 100 |  | 51 | 17.7 |  | 
10 | C/C(=C\CC/C(C)=C/CC/C(C)=C/Cc1cc(C(=O)O)ccc1O)C/C=C/C(C)(C)O [Compound 3] |  |  | 55.8 | 52.9 | 4.19 |  | 
11 | CC(C)=CCC/C(C)=C/CC/C(C)=C/CC/C(C)=C/Cc1cc(C(=O)O)ccc1O [Compound 1, (2E,6E,10E)-4-Hydroxy-3-(3,7,11,15-tetramethyl-hexadeca-2,6,10,14-tetraenyl)-benzoic acid] | 45 ± 21 | 0 | 4.42 | 5.43 | 2.82 |  | 

Results, then the compound that gave them:

Row | % BACE Activity ([1]; compound at 1 μM) [%] | % BACE Activity ([1]; compound at 10 μM) [%] | IC50 [2] [µM] | remaining activity at 25 µM [3] [%] | remaining activity at 50 µM [3] [%] | IC50 [1] [µM] | IC50 ([1]; given in M) [µM] | Compound
12 | 87 ± 10 | 33 ± 7 | 18 | 17.1 | 2.44 |  |  | COCOc1ccc(C(=O)O)cc1C/C=C(\C)CC/C=C(\C)CCC=C(C)C [Compound 28]
13 | 100 | 100 |  | 32.8 | 13.3 |  |  | CCNC(=O)c1ccc(O)c(C/C=C(\C)CC/C=C(\C)CC/C=C(\C)CCC=C(C)C)c1 [Compound 18]
14 | 100 | 100 | 22 | 9.18 | 4.5 |  |  | COCOC(=O)c1ccc(O)c(C/C=C(\C)CC/C=C(\C)CC/C=C(\C)CCC=C(C)C)c1 [Compound 25]
15 | 100 | 100 |  | 71.9 | 52.1 |  |  | CC(C)=CCC/C(C)=C/CC/C(C)=C/CC/C(C)=C/Cc1cc(C(=O)OCc2ccccc2)ccc1OCc1ccccc1 [Compound 17]
16 | 100 | 13 ± 14 | 12.5 | 37.7 | 5.04 |  |  | CC(C)=CCC/C(C)=C/CC/C(C)=C/CC/C(C)=C/Cc1cc(O)ccc1O [Compound 2]
17 | 100 | 100 |  | 71.6 | 78 |  |  | CC(C)=CCc1cc(C(=O)O)ccc1O [Compound 6]
18 | 88 ± 9 | 27 ± 3 |  | 100 | 79.9 |  |  | COCOc1ccc(C(=O)O)cc1C/C=C(\C)CCC=C(C)C [Compound 21]
19 | 100 | 100 |  | 71.4 | 41 |  |  | CC(C)=CCC/C(C)=C/CC/C(C)=C/Cc1cc(C(=O)O)ccc1OCc1ccccc1 [Compound 26]
20 | 100 | 42 ± 5 | 16 | 33.5 | 3.08 |  |  | COCOc1ccc(C=O)cc1C/C=C(\C)CCC=C(C)C [Compound 8, (2E)-3-(3,7-dimethyl-octa-2,6-dienyl)-4-methoxymethoxy-benzaldehyde]
21 | 57 ± 2 | 41 ± 4 | 7.87 | 9.26 | 0.95 |  |  | CC(C)=CCC/C(C)=C/CC/C(C)=C/Cc1cc(C=O)ccc1O [Compound 12]
22 | 34 ± 27 | 0 ± 0 |  | 85.1 | 65.8 |  |  | CC(C)=CCC/C(C)=C/Cc1cc(C(=O)O)ccc1OCc1ccccc1 [Compound 27]
23 | 94 ± 22 | 60 ± 16 |  | 61.3 | 5.75 |  | 37 | COCOc1ccc(C=O)cc1C/C=C(\C)CC/C=C(\C)CCC=C(C)C [Compound 9, (2E,6E)-4-methoxymethoxy-3-(3,7,11-trimethyl-dodeca-2,6,10-trienyl)-benzaldehyde]
24 | 100 | 5 ± 9 | 11 | 24.6 | 3.27 |  |  | CC(C)=CCC/C(C)=C/CC/C(C)=C/Cc1cc(C(=O)O)ccc1O [Compound 15]
